One block for each compound: values may come before it.
Tests used:
[1] = test system: Dutch Belted rabbits; test: In vivo rabbit miosis model, low-light (scotopic) conditions; conditions: for animals with greater than 2.5 mm reduction in pupil size from baseline: 0.1% w:v, scotopic (<10 lux), n=6; for miotic efficacy compared with brimonidine: single topical dose, low light, FIG. 1 to FIG. 4
Method: (§1) Female Dutch Belted rabbits (Covance, Princeton, New Jersey) weighing between 2-4 kg were used for these studies. […] For topical dosing, eye drops (volume=35 μl) were instilled into the lower conjunctival sac of the test eye.
Pupil diameter was measured in both the treated and untreated eye with an Optistick to the nearest 0.5 mm. […] All studies were done under low-light conditions in which a red photography light is used providing 2-10 Lux of light.

[2] = test system: Dutch Belted rabbits; test: In vivo rabbit miosis model, room light conditions; conditions: room lighting conditions, FIG. 5
Method: Percentage amounts are % w:v.
as §1
Pupil diameter was measured in both the treated and untreated eye with an Optistick to the nearest 0.5 mm. In all studies, baseline pupil diameter measurements were taken prior to drug administration and then at 0.5, 1, 2, 3 and 4 hours post dose. […]

[3] = Method: Aliquots of the PBS only curve were quenched at time zero to be used as stability controls and calibration standards. Following centrifugation, samples were analyzed by LC-MS/MS bioanalysis. Back-calculated concentrations using the assay PBS curve were used for binding and stability calculations.
[4] = test system: patients; test: Patient case examples (presbyopia, glare/starbursts/halos, night vision, night myopia); type: in vivo, human
From the text: A person complains of an inability to focus on text when reading up close, which is interfering with their ability of read documents at work, as well as reading books and news articles. The problem seems worse under lower lighting conditions, such as the dim lighting in a restaurant. The visual degradation had been occurring over time, but in recent months, the person's inability to focus on text when read close up had been more pronounced such as to interfere with their quality of life. The person is seen by an ophthalmologist who performs a visual acuity test in which they are asked to read lines of letters on an eye chart without the assistance of glasses or contacts (neither of which they wear anyway). They find that they are only able to read the first four lines on the chart, when a person with normal vision should be able to read six. Based on the person's age and results of the test, they are diagnosed with presbyopia. The person is reluctant to have to obtain reading glasses or wear contact lenses and asks if there are any other medical treatments. They are instructed to administer to their eyes a composition comprising a compound of Formula I one or two times a day. Starting with the first couple of doses, the patient reports improved vision when reading text up close. On a follow-up visit to the ophthalmologist, they are again asked to read lines of letters on an eye chart (they are still administering the composition with the compound of Formula I to their eyes), and this time they are able to read the first six lines, a two line improvement over their previous results prior to administering the compound of Formula I to their eyes.
A person has noticed that their near vision has been deteriorating over the last few years such that they often have to hold reading material almost out to arm's length in order to be able to read the print, especially when the ambient light is dim. The person visits their ophthalmologist who performs a basic eye exam and refraction assessment. Based on the examination, the ophthalmologist prescribes a composition comprising brimonidine to constrict the person's pupil to treat the presbyopia, and the person is instructed to administer the composition to their eyes daily as needed.
A person decides to undergo LASIK surgery. The surgeon who will perform the surgery evaluates the patient and determines that they are a suitable candidate for the surgery, but is told that side effects of the surgery include visual glare, visual starbursts, and visual halos, especially at night. The surgeon performs the surgery without any noticeable issues and the patient is discharged. A day later the patient drives home during the evening for the first time since the surgery and notices what appear to be starbursts of light emanating from the headlights and rear lights of other cars, as well as from street lights, and also glare coming from those light sources that interfere with is vision. The patient also observes diffuse rings around some of the street lights and illuminated street signs. Upon consultation, the surgeon confirms that such visual disturbances are indeed the visual glare, visual starburst, and visual halo side effects often seen after LASIK surgery, and the patient is prescribed a composition comprising the compound of Formula I, which the patient administers to their eyes in accordance with the package instructions.
A person has noticed that they are having issues seeing the street names on street signs with good contrast when they are driving at night. The person consults with their ophthalmologist who, upon hearing the patient's description and performing a visual acuity test under low light conditions, prescribes a composition comprising the compound of Formula I, which the patient administers to their eyes in accordance with the package instructions. […]

[5] = test system: presbyopic patients; conditions: different lighting conditions, McDonald II et al.; cited from earlier work

melanin binding (assessment in words) [3]: no significant melanin binding
Compound: Cc1c(N=C2NCCN2)ccc2[nH]cnc12 [Compound 1]
animals with greater than 2.5 mm reduction in pupil size from baseline ([1]; after 6 hours): more than half
animals with greater than 2.5 mm reduction in pupil size from baseline ([1]; two hours after dosing): virtually all
miotic efficacy compared with brimonidine [1]: greater magnitude of pupil size reduction
pupil constriction at 9 hours after dosing ([1]; topical dose, FIG. 6): significant pupil constriction
effect on pupil constriction compared to Compound 3 ([1]; topical dose, FIG. 7): greater effect
miotic action compared with brimonidine (peak pupil constriction and duration of action) [2]: greater miotic action than brimonidine
ability to focus on distant objects at night ([4]; person with night myopia): as good as their ability to do so during the day
administrations needed per day to treat presbyopia ([4]; person with presbyopia): once (or sometimes twice)
improvement in lines read on eye chart ([4]; person with presbyopia, composition one or two times a day): two
night vision contrast ([4]; person, driving at night): much better contrast
visual glare, starbursts and halos after LASIK ([4]; person, night driving): significantly reduced

Compound: CCc1c(N=C2NCCN2)ccc2[nH]cnc12 [Compound 2, reference compound]
miotic efficacy compared with brimonidine [1]: much less than brimonidine

Compound: Brc1c(N=C2NCCN2)ccc2[nH]cnc12 [Compound 3, reference compound]
miotic efficacy compared with brimonidine [1]: much less than brimonidine

melanin binding (assessment in words) [3]: much more significant binding
Compound: Brc1c(NC2=NCCN2)ccc2nccnc12 [Compound 4, brimonidine, reference compound]
animals with greater than 2.5 mm reduction in pupil size from baseline ([1]; after 6 hours): virtually none
animals with greater than 2.5 mm reduction in pupil size from baseline ([1]; half hour after dosing): much less than half
administrations needed per day to treat presbyopia ([4]; person with presbyopia): three
average pupil size after brimonidine [5]: 3.4 mm
